ChEMBL document CHEMBL5036307, “Antimalarial Quinacrine and Chloroquine Lose Their Activity by Decreasing Cationic Amphiphilic Structure with a Slight Decrease in pH” (J Med Chem, 2021)
pIC50: −log10 of the molar value. One block for each compound: values may come before it. Activity calls are given as the source filed them. The calls are words filed in the database; no cut-off is given here.

Legend:
Saccharomyces cerevisiae [1] = assay: Antimicrobial activity against Saccharomyces cerevisiae BY4741 assessed as inhibition of microbial growth at pH 6 in presence of glucose measured after 48 hrs by visual analysis; assay type: functional
Saccharomyces cerevisiae [2] = assay: Antimicrobial activity against Saccharomyces cerevisiae BY4741 assessed as inhibition of microbial growth at pH 7 in presence of glucose measured after 48 hrs by visual analysis; assay type: functional
Saccharomyces cerevisiae [3] = assay: Inhibition HXT2 in Saccharomyces cerevisiae using 2DG as substrate assessed as reduction in 2DG uptake by measuring Km at 125 uM at pH 7.5 by Michaelis-Menten analysis (Rvb= 0.76 +/- 0.03 mM)
Saccharomyces cerevisiae [4] = assay: Inhibition HXT2 in Saccharomyces cerevisiae using 2DG as substrate assessed as reduction in 2DG uptake by measuring Km at 75 uM at pH 7.5 by Michaelis-Menten analysis (Rvb= 0.76 +/- 0.03 mM)
Saccharomyces cerevisiae [5] = assay: Ratio of antimicrobial activity against Saccharomyces cerevisiae BY4741 at pH 7 to antimicrobial activity against Saccharomyces cerevisiae BY4741 at pH 8; assay type: functional
Saccharomyces cerevisiae [6] = assay: Inhibition HXT2 in Saccharomyces cerevisiae using 2DG as substrate assessed as reduction in 2DG uptake by measuring decrease in Vmax at 75 uM at pH 7.5 by Michaelis-Menten analysis (Rvb= 211 +/- 9 nmol/min)
Saccharomyces cerevisiae [7] = assay: Antimicrobial activity against Saccharomyces cerevisiae BY4741 assessed as inhibition of microbial growth at pH 8 in presence of glucose measured after 48 hrs by visual analysis; assay type: functional
[8] = Inhibition HXT2 in Saccharomyces cerevisiae using 2DG as substrate assessed as inhibition of 2DG uptake at pH 6 preincubated for 10 min followed by substrate addition and measured after 10 min by glucose uptake-Glo assay
[9] = Inhibition HXT2 in Saccharomyces cerevisiae using 2DG as substrate assessed as reduction in 2DG uptake at pH 7.5 preincubated for 10 min followed by substrate addition and measured after 10 min by glucose uptake-Glo assay
Saccharomyces cerevisiae [10] = assay: Inhibition HXT2 in Saccharomyces cerevisiae using 2DG as substrate assessed as reduction in 2DG uptake by measuring decrease in Vmax at 125 uM at pH 7.5 by Michaelis-Menten analysis (Rvb= 211 +/- 9 nmol/min)
Saccharomyces cerevisiae [11] = assay: Ratio of antimicrobial activity against Saccharomyces cerevisiae BY4741 at pH 6 to antimicrobial activity against Saccharomyces cerevisiae BY4741 at pH 8; assay type: functional
Saccharomyces cerevisiae [12] = assay: Antimicrobial activity against saccharomyces cerevisiae BY4741 assessed as inhibition of translation initiation by measuring polysme/monosome ratio at 1.5 mM at pH 7.5 incubated for 30 mins in presence of 2% glucose by polysome analysis (Rvb= 1.74); assay type: functional; conditions: 0.5 h
Saccharomyces cerevisiae [13] = assay: Inhibition HXT2 in Saccharomyces cerevisiae using 2DG as substrate assessed as reduction in 2DG uptake by measuring Km at 0.2 mM at pH 7.5 by Michaelis-Menten analysis (Rvb=0.76 +/- 0.08 mM)
Saccharomyces cerevisiae [14] = assay: Antimicrobial activity against saccharomyces cerevisiae BY4741 assessed as inhibition of translation initiation by measuring polysme/monosome ratio at 1.5 mM at pH 7.5 incubated for 30 mins in presence of 8% glucose by polysome analysis (Rvb= 1.94); assay type: functional; conditions: 0.5 h
Saccharomyces cerevisiae [15] = assay: Inhibition HXT2 in Saccharomyces cerevisiae using 2DG as substrate assessed as reduction in 2DG uptake by measuring Km at 0.6 mM at pH 7.5 by Michaelis-Menten analysis (Rvb= 0.76 +/- 0.08 mM)
Saccharomyces cerevisiae [16] = assay: Inhibition of endocytosis in Saccharomyces cerevisiae BY4741 from plasma to vacuoles assessed as formation of discrete granules at 25 mM incubated for 2 hrs by FM4-64 staining based analysis; assay type: functional, organism-based
Saccharomyces cerevisiae [17] = assay: Inhibition HXT2 in Saccharomyces cerevisiae using 2DG as substrate assessed as reduction in 2DG uptake by measuring decrease in Vmax at 0.6 mM at pH 7.5 by Michaelis-Menten analysis (Rvb= 208 +/- 7 nmol/min)
Cell membrane [18] = assay: Induction of membrane disruption in Saccharomyces cerevisiae BY4741 assessed as cell lysis by measuring increase in extracellular ATP level at pH 7.5 in presence of 8% glucose incubated for 30 mins
Cell membrane [19] = assay: Induction of membrane disruption in Saccharomyces cerevisiae BY4741 assessed as cell lysis by measuring increase in extracellular ATP level at pH 7.5 in presence of 2% glucose incubated for 30 mins
[20] = Inhibition of actin polarization in Saccharomyces cerevisiae BY4741 at pH 7.5 incubated for 30 mins in presence of 8% glucose by rhodamine phalloidin staining based confocal microscopic analysis
Saccharomyces cerevisiae [21] = assay: Antimicrobial activity against Saccharomyces cerevisiae BY4741 assessed as inhibition of microbial growth at 50 mM at pH 5 in presence of glucose measured after 48 hrs by visual analysis; assay type: functional, organism-based
[22] = Inhibition of actin polarization in Saccharomyces cerevisiae BY4741 at pH 7.5 incubated for 30 mins in presence of 2% glucose by rhodamine phalloidin staining based confocal microscopic analysis
Saccharomyces cerevisiae [23] = assay: Inhibition HXT2 in Saccharomyces cerevisiae using 2DG as substrate assessed as reduction in 2DG uptake by measuring decrease in Vmax at 0.2 mM at pH 7.5 by Michaelis-Menten analysis (Rvb= 208 +/- 7 nmol/min)
[24] = test system: Saccharomyces cerevisiae BY4741; assay: Inhibition of actin polarization in Saccharomyces cerevisiae BY4741 at pH 6 incubated for 30 mins in presence of 2% glucose by rhodamine phalloidin staining based confocal microscopic analysis
Cell membrane [25] = assay: Induction of membrane disruption in Saccharomyces cerevisiae BY4741 at 50 mM incubated for 2 hrs by FM4-64 staining based analysis; assay type: subcellular
Saccharomyces cerevisiae [26] = assay: Antimicrobial activity against Saccharomyces cerevisiae BY4741 assessed as inhibition of microbial growth at 60 mM at pH 6 in presence of glucose measured after 48 hrs by visual analysis; assay type: functional, organism-based

MIC (Saccharomyces cerevisiae [1]): 250 µM | MIC (Saccharomyces cerevisiae [2]): 31 µM | Km (Saccharomyces cerevisiae [3]): 710 µM | Km (Saccharomyces cerevisiae [4]): 630 µM | Vmax (Saccharomyces cerevisiae [6]): 126 nmol/min | MIC (Saccharomyces cerevisiae [7]): 15 µM | pIC50 [8]: 3.59 | pIC50 [9]: 3.94 | Vmax (Saccharomyces cerevisiae [10]): 63 nmol/min
Compound: CN(C)CCCN1c2ccccc2Sc2ccc(Cl)cc21 [CHLORPROMAZINE]
Ratio (Saccharomyces cerevisiae [5]): 2 | Ratio (Saccharomyces cerevisiae [11]): 16

MIC (Saccharomyces cerevisiae [1]): 50000 µM | Km (Saccharomyces cerevisiae [13]): 770 µM | MIC (Saccharomyces cerevisiae [2]): 2.5 µM | Km (Saccharomyces cerevisiae [15]): 750 µM | Vmax (Saccharomyces cerevisiae [17]): 113 nmol/min | Activity (Cell membrane [18]): 37 mM | Activity (Cell membrane [19]): 21.6 mM | pIC50 [20]: 2.80 | pIC50 [22]: 3.00 | Vmax (Saccharomyces cerevisiae [23]): 158 nmol/min | MIC (Saccharomyces cerevisiae [7]): 83 µM | inhibition [24]: inactive | pIC50 [8]: 2.46 | pIC50 [9]: 3.43 | Activity (Cell membrane [25]): Active
Compound: CCN(CC)CCCC(C)Nc1c2ccc(Cl)cc2nc2ccc(OC)cc12 (stereo unspecified) [QUINACRINE]
Ratio (Saccharomyces cerevisiae [12]): 1.53 | Ratio (Saccharomyces cerevisiae [14]): 1.69 | inhibition (Saccharomyces cerevisiae [16]): Active | Activity (Saccharomyces cerevisiae [21]): inactive | Ratio (Saccharomyces cerevisiae [5]): 30 | Ratio (Saccharomyces cerevisiae [11]): 600

MIC (Saccharomyces cerevisiae [2]): 15000 µM | MIC (Saccharomyces cerevisiae [7]): 520 µM
Compound: CCN(CC)CCCC(C)Nc1ccnc2cc(Cl)ccc12 (stereo unspecified) [CHLOROQUINE]
Activity (Saccharomyces cerevisiae [26]): inactive | Ratio (Saccharomyces cerevisiae [5]): 30
